# Results: patent publication US20060014726A1, “Derivatives of cyclic1, 3- propanediol phosphate and their action in differentiation therapy” (priority 2002, published 2006)
# Like-named read-outs stand apart in the source and are kept apart here.
# How the values were obtained:
# [1] = tested on: K562 cells
# Procedure: It is known from the literature that sodium butyrate derives K562 cells into the erythroid differentiation program (Sutherland et al. 1986). Base on such an observation, the ability of 1,3-cPP alone or in combination with sodium butyrate may trigger the erythroid differentiation program manifested by hemoglobin production.
# K562 cells were incubated for 5 days in the presence or absence of 10 or 50 μM 1,3cPP and 1 mM butyric acid as a differentiating agent. Quantitative measurements of hemoglobin production was determined by staining of lysed cells with benzidine-peroxide reagent. The benzidine-peroxide reagent was prepared by dissolving 3,3′,5,5′-tetramethyl benzidine in 90% acetic acid and mixing with an equal volume of freshly prepared 1% hydrogen peroxide. Cell lysate, obtained by hypotonic lysing of 5×10^4 cells in 0.1 ml distilled water, was added to 0.1 ml benzidine reagent and incubated at room temperature for 10 minutes in the dark. Absorbance was measured at 515 nm and was taken as a relative index of the hemoglobin level.
# [2] = tested on: progesterone receptor (PR) in MCF-7 cells; assay: Western blot analysis of PR level in MCF-7 cells; type: cell-based, human; details: MCF-7 cells, from 10 μM upwards
# Procedure: In an analogous manner, a set of experiments was preformed with MCF-7 cells for determining the level of PR upon incubation with varying concentrations of 1,3-cPP for a period of up to 11 days. Similar to the augmentation observed for ER-α, an increase of up to 2.8 and 2.2 fold expression of the wild type PR (MW 98,000), was observed from 10 μM 1,3-cPP and upwards on days 8 and 11, respecively (FIGS. 3A-D).
# Breast Cancer Cells. The human breast cancer MCF-7 cell line were obtained from Prof. Hadassa Degani, of Weizmann Institute of Science, Rehovot, Israel. The cells were grown as monolayers in high glucose DMEM supplemented with 6% fetal calf serum and combined antibiotics. Human breast cancer T47D cells, clones 8 (ER^loPR^lo) and 11 (ER^+PR^+) were obtained from Prof Iafa Keydar, Tel-Aviv university and were grown in DMEM supplemented with 10% fetakl calf serum antibiotics. K562 erythroleukemia cells were obtained from Dr. Alfa Peled of Weizmann Institute of Science, Rehovot, Israel. These cells were grown in RPMI 1640 containing 10% fetal calf serum and antibiotics. All lines were grown at 37° C. in the presence of 5% CO2. The absence of Mycoplasma contamination was monitored by a Mycotrim TC test (Irvine Scientific, Santa Ana, Calif.) carried out once every 3 months.
# For ER-α protein analysis, MCF-7 and T47D cells were cultured in 60×15 mm petri dishes. From the second day of culture onward, the cells were treated with various concentrations of 1,3cPP for up to 14 days. At the end of the incubation period, the medium was aspirated and the cells were washed 3 times with cold (4° C.) PBS. […] The protein concentration in each sample (1.5-4 mg/ml) was determined using the Coomassie Protein Assay (Pierce, Rockford, Ill.) according to the manufacturer's instructions. […] Bound antibodies were detected by horseradish peroxidase-conjugated goat anti-rabbit IgG, (Transduction Laboratories, Lexington, Ky. using the ECL detection method. Band densities were quantified by densitometry (Biorad model GS-690 Imaging densitometer) using Molecular Analyst software.
smiles,measurement,setting,value
"O=P1(O)OCCCO1 [1,3-cPP, 1,3-cyclic propanediol phosphate]",baseline production of hemoglobin,"[1]; K562 cells, 10 μM 1,3-cPP together with 1 mM sodium butyrate, 5 days",more than doubling
same,baseline production of hemoglobin,"[1]; K562 cells, 50 μM 1,3-cPP together with 1 mM sodium butyrate, 5 days",more than tripling
same,hemoglobin production,"[1]; K562 cells, 1,3-cPP alone, 5 days",almost no effect
same,cell viability,"[1]; K562 cells, all groups",over 85%
same,interaction with sodium butyrate on hemoglobin production and proliferation,"[1]; K562 cells, combination with sodium butyrate (FIG. 7)",synergizes with sodium butyrate
same,total cell number,"[1]; K562 cells, fifth day, most prominently 50 μM 1,3-cPP together with 1 mM sodium butyrate",concurrent decrease
same,"increase in expression of the wild type PR (MW 98,000)",[2]; day 8,up to 2.8 fold
same,"increase in expression of the wild type PR (MW 98,000)",[2]; day 11,≤ 2.2 fold
